Experiments:
[1] = test system: GG1 (DNA, mismatch bulge abasic) CTAACGGAATG/CATTCGGTTAG; assay: ITC; details: Na+ 100 mM (NaCl), 10 mM sodium cacodylate pH 7.0, 25 °C, 2.5 µM DNA, 50 µM NCD titrant
[2] = test system: GG1 (DNA, mismatch bulge abasic) CTAACGGAATG/CATTCGGTTAG; assay: CD; details: Na+ 100 mM (NaCl); 10 mM sodium cacodylate pH 7.0, room temperature; 5 µM DNA, 20 µM NCD
[3] = test system: GG1 (DNA, mismatch bulge abasic) CTAACGGAATG/CATTCGGTTAG; assay: UV melting at 260 nm; details: Na+ 100 mM (NaCl); 10 mM sodium cacodylate pH 7.0; 5 µM DNA, 20 µM NCD; Tm without and with NCD
[4] = test system: GG1 with a T4 hairpin loop (DNA, mismatch bulge abasic) CTAACGGAATGTTTTCATTCGGTTAG; assay: CSI-TOF MS; details: NH4+ 100 mM (ammonium acetate); 50% aqueous methanol, spray -10 °C; 5 µM DNA, 100 µM NCD; 1:1 complex not observed
[5] = test system: d(CGG)10 (DNA, repeat) CGGCGGCGGCGGCGGCGGCGGCGGCGGCGG; assay: CSI-TOF MS; details: NH4+ 100 mM (ammonium acetate); 50% aqueous methanol, spray -10 °C; 10 µM DNA, 50 µM NCD
[6] = test system: GG1 (DNA, mismatch bulge abasic) CTAACGGAATG/CATTCGGTTAG; assay: NMR structure and titration; details: Na+ 100 mM (NaCl); 20 mM sodium phosphate pH 6.8, 283 K; slow exchange, cooperative

## Cc1ccc2ccc(NC(=O)OCCCNCCCOC(=O)Nc3ccc4ccc(C)nc4n3)nc2n1
[1]
  apparent KD: 67 nM
[2]
  binding: yes
[3]
  Tm: 21.8 °C
[4]
  binding: yes
[5]
  binding: yes
[6]
  binding: yes

— paper PMC9508812 (2022)
